pIC50: −log10 of the molar value. Read-outs that look alike come from different tables or passages of the source.
Columns and labels:
JAK3 (a.a. 781-1124) = JAK3 (a.a. 781-1124) (Homo sapiens (Human), UniProt P52333); test: JAK3 enzyme activity assay (SRCtide phosphorylation, Caliper); assay type: biochemical; settings: 2.5 nM JAK3, 1 μM SRCtide, 1 uM ATP, 40 minutes; read-out: JAK3 Inhibition IC50
Protocol: The activity of JAK3 (a.a. 781-1124, ThermoFisher) was quantified by measuring the phosphorylation of SRCtide (FAM-GEEPLYWSFPAKKK-NH2). Kinase reactions were run in a 384-well Greiner plate with 2% final DMSO concentration under the buffer conditions of 20 mM HEPES, pH 7.5, 10 mM MgCl2, 0.01% BSA, and 0.0005% Tween-20. The kinase reaction components were 2.5 nM JAK3, 1 μM SRCtide peptide and 1 uM ATP. Examples were tested in dose-response starting at 2 μM (11 concentrations, 3-fold serial dilution, duplicate reactions). The reactions were incubated at room temperature for 40 minutes, then stopped by adding a 1:1 volume of 30 mM EDTA in 20 mM HEPES, pH 7.5 (15 mM EDTA final). After the reaction was stopped, the phosphorylated and unphosphorylated peptides were separated and quantified using a Caliper LC3000/EZ-Reader system and HTS Well Analyzer Software (Caliper, A PerkinElmer Company, Hopkinton, Mass.). GraFit (Erithacus Software Ltd., Horley, U.K.) was used to calculate inhibitor potency by fitting dose-response data to the 4-parameter logistical IC50 equation.
(§1) Background signal is defined in the absence of enzyme and uninhibited signal is defined in the presence of vehicle (2% DMSO) alone. Compounds were evaluated in an 11 point dose-response ranging from […] to 0.34 nM. IC50 values of compounds are determined using a 4 parameter logistical fit of emission ratio as a function of the concentration of compound.

[1] = tested on: IFNγ stimulated STAT1 phosphorylation on Tyr701 (JAK1/2); test: JAK1/2 cellular target modulation: IFNγ stimulated phospho-STAT1 in PBMC; assay type: cell-based; settings: IFNγ 10 ng/ml, 1 hour compound preincubation, read-out: Infγ-STAT1 IC50
Source text: (§2) Target modulation was based upon the ability of a compound to inhibit JAK isoform specific phosphorylation of selected substrates. IL-2 stimulated STAT5 phosphorylation on Tyr694 was used to assess JAK1/3 compound selectivity. GM-CSF stimulated STAT5 phosphorylation on Tyr694 was used to assess JAK2 compound selectivity. IFNγ stimulated STAT1 phosphorylation on Tyr701 was used to assess JAK1/2 compound selectivity. For all three assays, human PBMC from frozen stocks were thawed, pelleted, resuspended in complete media (90% RPMI, 10% heat inactivated FBS, 10 mM HEPES, 47 μM 2-ME, pen/strep) and placed in wells of a 96 well V-bottom plate at 200,000 per well in 120 μl complete media. Compounds were added as 15 μl per well of 10× working stock solutions in complete media with 1% DMSO (or medium with 1% DMSO for controls) and placed on a plate shaker in a 37° C. incubator with 5% CO2 for 1 hour with gentle shaking (setting of 3). Stimulation used the addition of soluble cytokines. For the JAK1/3 phospho-STAT5 assay, 15 μl of 10× working stock recombinant human IL-2 was added to a final concentration of 25 ng/ml. For the JAK2 phospho-STAT5 assay, 15 μl of 10× working stock recombinant human GM-CSF was added to a final concentration of 5 ng/ml. For the JAK1/2 phospho-STAT1 assay, 15 μl of 10× working stock of recombinant human IFNγ was added to a final concentration of 10 ng/ml. Plates were then placed back on the plate shaker in the incubator for an additional 5, 5 and 10 minutes respectively upon which the plates were removed from the incubator, sealed with a plate sealer and the cells pelleted at 400×g for 5 minutes. After pelleting, the media was removed by aspiration and the cells were lysed in ELISA specific cell lysis buffer. The levels of phospho-STAT5 were determined using a Phospho (Tyr694)/Total STAT5a,b Whole Cell Lysate kit from Meso Scale Discovery. Levels of phospho-STAT1 were determined using a CST-PathScan Phospho-STAT1 (Tyr701) Sandwich ELISA kit.

JAK1 = JAK1 (Homo sapiens (Human), UniProt P23458); test: JAK1 enzyme activity assay (Thermo Fisher SelectScreen Z-lyte); assay type: biochemical; settings: 1 hour kinase reaction, read-out: JAK1 Inhibition IC50
JAK1, sequence (P23458 whole entry): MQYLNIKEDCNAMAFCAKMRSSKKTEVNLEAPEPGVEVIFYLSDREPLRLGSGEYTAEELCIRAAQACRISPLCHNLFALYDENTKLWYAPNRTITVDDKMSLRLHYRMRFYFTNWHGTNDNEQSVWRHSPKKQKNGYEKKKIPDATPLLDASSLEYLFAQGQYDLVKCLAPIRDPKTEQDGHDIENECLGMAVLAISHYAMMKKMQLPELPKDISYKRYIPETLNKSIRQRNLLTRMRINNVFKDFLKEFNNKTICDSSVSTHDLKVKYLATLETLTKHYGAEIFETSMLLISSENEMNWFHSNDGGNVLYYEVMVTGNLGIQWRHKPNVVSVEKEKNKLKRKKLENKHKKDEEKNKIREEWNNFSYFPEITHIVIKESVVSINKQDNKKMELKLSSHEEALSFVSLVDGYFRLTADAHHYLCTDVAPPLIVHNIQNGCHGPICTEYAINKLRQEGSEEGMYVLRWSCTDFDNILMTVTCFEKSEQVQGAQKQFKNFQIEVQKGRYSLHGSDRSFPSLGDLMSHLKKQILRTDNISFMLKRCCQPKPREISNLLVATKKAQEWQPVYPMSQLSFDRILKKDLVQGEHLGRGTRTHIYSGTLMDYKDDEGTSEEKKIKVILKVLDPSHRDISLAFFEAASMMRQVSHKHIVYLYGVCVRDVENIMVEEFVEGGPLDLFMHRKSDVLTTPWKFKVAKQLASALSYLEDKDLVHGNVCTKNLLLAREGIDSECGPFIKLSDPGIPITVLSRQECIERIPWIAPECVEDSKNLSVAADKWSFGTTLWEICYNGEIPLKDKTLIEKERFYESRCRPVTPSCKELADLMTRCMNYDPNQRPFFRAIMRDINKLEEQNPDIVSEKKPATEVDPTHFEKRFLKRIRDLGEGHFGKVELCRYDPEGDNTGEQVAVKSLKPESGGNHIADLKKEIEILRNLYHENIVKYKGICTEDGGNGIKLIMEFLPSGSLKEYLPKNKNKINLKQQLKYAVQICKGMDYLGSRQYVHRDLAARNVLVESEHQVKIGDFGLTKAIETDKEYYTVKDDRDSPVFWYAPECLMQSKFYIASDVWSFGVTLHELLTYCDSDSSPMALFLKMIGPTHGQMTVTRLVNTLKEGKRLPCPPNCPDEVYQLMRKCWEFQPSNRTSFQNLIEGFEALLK
Protocol: The inhibitory potency of candidate compounds of JAK1 done at Thermo Fisher Scientific in their Selectscreen using a Z-lyte assay. The 2×JAK1/Tyr 06 mixture is prepared in 50 mM HEPES pH 6.5, 0.01% BRIJ-35, 10 mM MgCl2, 1 mM EGTA, 0.02% NaN3. The final 10 μL of the Kinase Reaction consists of 21.2-91.5 ng JAK1 and 2 μM Tyr 06 in 50 mM HEPES pH 7.0, 0.01% BRIJ-35, 10 mM MgCl2, 1 mM EGTA, 0.01% NaN3. After the 1 hour Kinase Reaction incubation, 5 μL of a 1:128 dilution of Development Reagent is added.
as §1

[2] = tested on: IL-2 stimulated STAT5 phosphorylation on Tyr694 (JAK1/3); test: JAK1/3 cellular target modulation: IL-2 stimulated phospho-STAT5 in PBMC; assay type: cell-based; settings: IL-2 25 ng/ml, 1 hour compound preincubation, read-out: IL2-STAT5 Inhibition IC50
Source text: as §2

JAK3 (a.a. 781-1124), sequence (P52333 781-1124): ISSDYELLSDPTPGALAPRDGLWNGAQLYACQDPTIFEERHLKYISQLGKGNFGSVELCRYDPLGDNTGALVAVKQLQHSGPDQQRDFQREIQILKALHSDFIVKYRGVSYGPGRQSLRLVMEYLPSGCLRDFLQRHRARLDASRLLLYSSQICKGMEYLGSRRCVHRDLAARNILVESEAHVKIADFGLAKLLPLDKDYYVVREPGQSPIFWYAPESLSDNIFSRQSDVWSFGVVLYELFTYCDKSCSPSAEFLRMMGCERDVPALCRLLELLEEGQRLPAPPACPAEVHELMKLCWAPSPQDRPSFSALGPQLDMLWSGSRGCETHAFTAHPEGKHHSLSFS

SMILES	pIC50 (JAK3 (a.a. 781-1124))	pIC50 ([1]; Homo sapiens, PBMC)	pIC50 (JAK1)	pIC50 ([2]; Homo sapiens, PBMC)	pIC50 ([2]; human PBMC)	pIC50 ([1]; human PBMC)
CCOC(=O)c1cnc2[nH]ccc2c1N[C@H]1CCC[C@H](CCC#N)C1 (racemic) [Example 134, (rac)-(trans)-Ethyl 4-((3-(2-cyanoethyl)cyclohexyl)amino)-1H-pyrrolo[2,3-b]pyridine-5-carboxylate]	≥ 8.00	6.00 to 7.00	≥ 8.00	≥ 7.00		
CCCOC(=O)c1cnc2[nH]ccc2c1N[C@H]1CCC[C@@H](CCC#N)C1 (racemic) [Example 139, (rac) (cis) propyl 4-((3-(2-cyanoethyl)cyclohexyl)amino)-1H-pyrrolo[2,3-b]pyridine-5-carboxylate]	≥ 8.00	< 6.00	≥ 8.00	6.00 to 7.00		
CCCOC(=O)c1cnc2[nH]ccc2c1N[C@H]1CCC[C@H](CCC#N)C1 (racemic) [Example 140, (rac)-(trans)-propyl 4-((3-(2-cyanoethyl)cyclohexyl)amino)-1H-pyrrolo[2,3-b]pyridine-5-carboxylate]	≥ 8.00	6.00 to 7.00	≥ 8.00	6.00 to 7.00		
COCCOC(=O)c1cnc2[nH]ccc2c1N[C@H]1CCC[C@H](CCC#N)C1 (racemic) [Example 148, racemic, trans-2-methoxyethyl 4-((3-(2-cyanoethyl)cyclohexyl)amino)-1H-pyrrolo[2,3-b]pyridine-5-carboxylate]	≥ 8.00	6.00 to 7.00	7.00 to 8.00	6.00 to 7.00		
COC(=O)c1cnc2[nH]ccc2c1N[C@H]1CCC[C@H](CCC#N)C1 (racemic) [Example 151, trans-racemic-methyl 4-((3-(2-cyanoethyl)cyclohexyl)amino)-1H-pyrrolo[2,3-b]pyridine-5-carboxylate]	≥ 8.00	6.00 to 7.00	≥ 8.00	≥ 7.00		
COC(=O)c1cnc2[nH]ccc2c1N[C@@H]1CCC[C@H](CCC#N)C1 (racemic) [Example 152, cis-racemic-methyl 4-((3-(2-cyanoethyl)cyclohexyl)amino)-1H-pyrrolo[2,3-b]pyridine-5-carboxylate]	≥ 8.00	6.00 to 7.00	≥ 8.00	≥ 7.00		
CCOC(=O)c1cnc2[nH]ccc2c1N(C)[C@H]1CC[C@H](OC(=O)CC#N)C1 (single isomer, unassigned) [Example 70, (trans)-ethyl 4-((3-(2-cyanoacetoxy)cyclopentyl)(methyl)amino)-1H-pyrrolo[2,3-b]pyridine-5-carboxylate]	6.00 to 7.00	< 6.00	7.00 to 8.00		6.00 to 7.00	
CCOC(=O)c1cnc2[nH]ccc2c1N[C@@H]1CC[C@@H](O)C1 (single isomer, unassigned) [Example 72, (trans)-ethyl 4-((3-hydroxycyclopentyl)amino)-1H-pyrrolo [2,3-b]pyridine-5-carboxylate]	7.00 to 8.00	< 6.00	7.00 to 8.00	6.00 to 7.00		
CCOC(=O)c1cnc2[nH]ccc2c1N[C@H]1CC[C@H](OC(=O)CC#N)C1 (single isomer, unassigned) [Example 73, (trans)-ethyl 4-((3-(2-cyanoacetoxy)cyclopentyl)amino)-1H-pyrrolo [2,3-b]pyridine-5-carboxylate]	7.00 to 8.00		≥ 8.00	≥ 7.00		≥ 7.00
CCOC(=O)c1cnc2[nH]ccc2c1N[C@H]1CC[C@H](OC(=O)CC#N)C1 (single isomer, unassigned) [Example 74, (trans)-ethyl 4-((3-(2-cyanoacetoxy)cyclopentyl)amino)-1H-pyrrolo[2,3-b]pyridine-5-carboxylate]	7.00 to 8.00		7.00 to 8.00		6.00 to 7.00	< 6.00
CCOC(=O)c1cnc2[nH]ccc2c1N[C@H]1CC[C@H](O)C1 (single isomer, unassigned) [Example 75, (trans)-ethyl 4-((3-hydroxycyclopentyl)amino)-1H-pyrrolo[2,3-b]pyridine-5-carboxylate]	7.00 to 8.00	< 6.00	7.00 to 8.00	6.00 to 7.00		
CCOC(=O)c1cnc2[nH]ccc2c1N[C@H]1CCC[C@@H](CCC#N)C1 (single isomer, unassigned; enantiomer 1) [Example 135, (cis) ethyl 4-((3-(2-cyanoethyl)cyclohexyl)amino)-1H-pyrrolo[2,3-b]pyridine-5-carboxylate, enantiomer 1]	≥ 8.00	≥ 7.00	≥ 8.00	≥ 7.00		
CCOC(=O)c1cnc2[nH]ccc2c1N[C@@H]1CCC[C@@H](CCC#N)C1 (single isomer, unassigned; enantiomer 1) [Example 137, (trans) ethyl 4-((3-(2-cyanoethyl)cyclohexyl)amino)-1H-pyrrolo[2,3-b]pyridine-5-carboxylate enantiomer 1]	≥ 8.00	< 6.00	≥ 8.00	≥ 7.00		
COCCOC(=O)c1cnc2[nH]ccc2c1N[C@H]1CCC[C@@H](CCC#N)C1 (single isomer, unassigned; enantiomer 1) [Example 149, cis-2-methoxyethyl 4-((3-(2-cyanoethyl)cyclohexyl)amino)-1H-pyrrolo[2,3-b]pyridine-5-carboxylate, enantiomer 1]	7.00 to 8.00	< 6.00	6.00 to 7.00	6.00 to 7.00		
CCOC(=O)c1cnc2[nH]ccc2c1N[C@@H]1CCC[C@H](CCC#N)C1 (single isomer, unassigned; enantiomer 2) [Example 136, (cis) ethyl 4-((3-(2-cyanoethyl)cyclohexyl)amino)-1H-pyrrolo[2,3-b]pyridine-5-carboxylate, enantiomer 2]	7.00 to 8.00	< 6.00	7.00 to 8.00	6.00 to 7.00		
CCOC(=O)c1cnc2[nH]ccc2c1N[C@H]1CCC[C@H](CCC#N)C1 (single isomer, unassigned; enantiomer 2) [Example 138, (trans)-ethyl 4-((3-(2-cyanoethyl)cyclohexyl)amino)-1H-pyrrolo[2,3-b]pyridine-5-carboxylate, enantiomer 2]	≥ 8.00	6.00 to 7.00	7.00 to 8.00	6.00 to 7.00		
COCCOC(=O)c1cnc2[nH]ccc2c1N[C@@H]1CCC[C@H](CCC#N)C1 (single isomer, unassigned; enantiomer 2) [Example 150, cis 2-methoxyethyl 4-((3-(2-cyanoethyl)cyclohexyl)amino)-1H-pyrrolo[2,3-b]pyridine-5-carboxylate, enantiomer 2]	≥ 8.00	6.00 to 7.00	≥ 8.00	≥ 7.00		

Reference: patent US10981906B2, “Substituted pyrrolopyridine JAK inhibitors and methods of making and using the same” (ACLARIS THERAPEUTICS, INC., priority 2017, dated 2021)
